According to patent US20030170731A1, “Diagnosis and treatment of non-ulcer dyspepsia based on hypothalamic-pituitary-adrenal axis abnormallity” (priority 2000, published 2003):

Tested on: CRH receptors
Experiment: CRH/ACTH test: plasma ACTH after intravenous ovine CRH, immunoradiometric assay
Assay type: in vivo, human
Conditions: ovine CRH 100 μg intravenously
Excerpt: A total of ten patients with NUD were recruited from the Gastroenterology Clinic at St. James's Hospital, Dublin. Patients consisted of six men and four woman between the ages of twenty eight and forty five. They were matched for age and sex with ten healthy volunteers. To be included in the study patients had at least four of the following symptoms for at least three months: early satiety, upper abdominal pain, post prandial bloating, excessive flatulence, borborygmus, and nausea and/or vomiting. They all had normal results on physical examination. Endoscopic examination, twenty-four hour ambulatory pH monitoring, abdominal ultrasound were all negative. Five patients with H. pylori infestation were tested both before and after H. pylori eradication. The other five patients had no evidence of H. pylori infection. None of the patients had evidence of a formal psychiatric illness. Also none of the patients fulfilled the criteria for IBS.
Patients who were H. pylori positive were re-tested six months after commencing eradication therapy. In all cases endocrine tests were commenced at 1400 h. The test procedure was as follows. […]
Plasma ACTH was measured using a two site unextracted immunoradiometric assay with a commercially available kit supplied by the Nichols Institute (San Juan Capistrano, Calif.). […]

ovine CRH: ovine variant of corticotropin releasing hormone, given intravenously as a challenge agent
CRH/ACTH enhancement following H. pylori eradication therapy (H. pylori positive NUD patients re-tested six months after commencing eradication therapy): persists | plasma ACTH response following CRH stimulation (NUD patients with and without H. pylori infection, relative to healthy volunteers, blood at 15-120 min): vastly enhanced
